Source: BigSolDB 2.1

CCOc1ncc(C)c2c1[C@H](c1ccc(C#N)cc1OC)C(C(N)=O)=C(C)N2
solubility (mole fraction)
Conditions	in 2-butanone	in acetone	in acetonitrile	in dichloromethane	in ethanol	in ethyl acetate	in isopropanol	in isopropyl acetate	in methanol	in methyl acetate
273.15 K	0.0031	0.00376	0.000808	0.0047	0.000949	0.00114	0.000229	0.000378	0.004	0.00127
278.15 K	0.00347	0.00407	0.000973	0.00506	0.00115	0.00128	0.000333	0.000459	0.00422	0.00136
283.15 K	0.00376	0.00449	0.00111	0.00565	0.00135	0.00143	0.000443	0.000563	0.0045	0.0015
288.15 K	0.0041	0.00508	0.00129	0.00622	0.00156	0.00157	0.000554	0.000647	0.00484	0.00166
293.15 K	0.0044	0.00545	0.00144	0.00669	0.00182	0.0017	0.000682	0.000728	0.00515	0.00182
298.15 K	0.00468	0.00577	0.00166	0.00724	0.00206	0.00182	0.000822	0.000809	0.00553	0.00197
303.15 K	0.00508	0.00614	0.0019	0.00766	0.00233	0.00195	0.000984	0.00089	0.00599	0.00211
308.15 K	0.00542	0.00665	0.00217	0.00814	0.00261	0.00211	0.00122	0.000979	0.00638	0.00229
313.15 K	0.00587	0.00725	0.00247	–	0.00299	0.00225	0.00152	0.00113	0.00684	0.00248
